Results published in patent US9096591B2, “Tetracyclic compounds” (Medivation Technologies, Inc., priority 2007, dated 2015).
Read-outs that look alike come from different tables or passages of the source.

Legend:
[1] = target: T1, human recombinant dopamine D2L receptor (Homo sapiens, UniProt P14416); assay: Dopamine D2L radioligand binding ([3H]Spiperone); conditions: percent inhibition of specific binding
T1 construct: expressed in transfected cells; host or cells: CHO cells
Experimental: Non-specific binding was estimated in the presence of 10 μM Haloperidol. Receptor proteins were filtered and washed, the filters were then counted to determine [^3H]Spiperone specifically bound. […] Biochemical assay results are presented as the percent inhibition of specific binding in Table 6.

[2] = target: T2, human recombinant serotonin (5-Hydroxytryptamine) 5-HT2A receptor (Homo sapiens, UniProt P28223); assay: Serotonin 5-HT2A radioligand binding ([3H]Ketanserin); design: Inhibition of ligand binding, Ser. 5-HT2A: concentration or dose not given beside the values; conditions: percent inhibition of specific binding
T2 construct: expressed in transfected cells; host or cells: CHO-K1 cells
Experimental: Compounds of the invention were incubated with 0.5 nM [^3H]Ketanserin for 60 minutes at 25° C. Non-specific binding was estimated in the presence of 1 μM Mianserin. Receptor proteins were filtered and washed, the filters were then counted to determine [^3H]Ketanserin specifically bound. […] Biochemical assay results are presented as the percent inhibition of specific binding in Table 6.

[3] = target: T3, human recombinant serotonin (5-Hydroxytryptamine) 5-HT2C receptor (Homo sapiens, UniProt P28335); assay: Serotonin 5-HT2C radioligand binding ([3H]Mesulergine); design: Inhibition of ligand binding, Ser. 5-HT2C: concentration or dose not given beside the values; conditions: percent inhibition of specific binding
T3 construct: expressed in transfected cells; host or cells: CHO-K1 cells
T3 sequence (P28335 33-458): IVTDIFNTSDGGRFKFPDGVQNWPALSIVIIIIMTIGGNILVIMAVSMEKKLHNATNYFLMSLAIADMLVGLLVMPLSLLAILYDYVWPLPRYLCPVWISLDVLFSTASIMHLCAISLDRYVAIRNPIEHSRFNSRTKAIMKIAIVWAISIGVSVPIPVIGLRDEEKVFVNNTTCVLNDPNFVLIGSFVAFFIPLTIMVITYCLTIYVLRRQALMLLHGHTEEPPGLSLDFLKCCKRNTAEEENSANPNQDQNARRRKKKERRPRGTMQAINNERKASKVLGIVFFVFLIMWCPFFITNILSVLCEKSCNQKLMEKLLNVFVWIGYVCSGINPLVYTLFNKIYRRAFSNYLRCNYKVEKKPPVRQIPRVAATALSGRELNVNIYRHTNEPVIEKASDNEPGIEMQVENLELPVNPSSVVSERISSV
Experimental: Compounds of the invention were incubated with 1 nM [^3H]Mesulergine for 60 minutes at 25° C. Non-specific binding was estimated in the presence of 1 μM Mianserin. Receptor proteins were filtered and washed, the filters were then counted to determine [^3H]Mesulergine specifically bound. […] Biochemical assay results are presented as the percent inhibition of specific binding in Table 6.

[4] = target: T4, human recombinant adrenergic α1D receptor (Homo sapiens, UniProt P25100); assay: Adrenergic α1D radioligand binding ([3H]Prozosin); design: Inhibition of ligand binding, Adren. alpha1D: concentration or dose not given beside the values; conditions: percent inhibition of specific binding
T4 construct: expressed in transfected cells; host or cells: HEK-293 cells
T4 sequence (P25100 1-572): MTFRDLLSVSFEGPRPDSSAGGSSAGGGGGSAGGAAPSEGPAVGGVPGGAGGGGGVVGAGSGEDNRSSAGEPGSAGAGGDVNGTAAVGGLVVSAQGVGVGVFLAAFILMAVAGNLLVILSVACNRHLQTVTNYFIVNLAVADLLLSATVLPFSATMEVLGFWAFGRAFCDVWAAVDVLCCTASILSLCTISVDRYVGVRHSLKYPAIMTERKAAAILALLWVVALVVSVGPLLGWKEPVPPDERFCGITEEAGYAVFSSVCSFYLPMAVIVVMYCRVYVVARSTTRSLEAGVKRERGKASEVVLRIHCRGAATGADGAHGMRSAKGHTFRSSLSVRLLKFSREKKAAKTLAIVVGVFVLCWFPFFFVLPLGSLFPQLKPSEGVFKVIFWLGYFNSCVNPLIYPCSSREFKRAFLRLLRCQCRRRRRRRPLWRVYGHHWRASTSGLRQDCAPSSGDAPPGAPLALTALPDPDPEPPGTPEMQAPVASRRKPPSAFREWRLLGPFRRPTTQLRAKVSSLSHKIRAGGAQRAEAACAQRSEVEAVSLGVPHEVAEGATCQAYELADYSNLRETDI
Experimental: Compounds of invention were incubated with 0.6 nM [^3H]Prozosin for 60 minutes at 25° C. Non-specific binding was estimated in the presence of 10 μM phentolamine. Receptor proteins were filtered and washed, the filters were then counted to determine [^3H]Prozosin specifically bound. […] Biochemical assay results are presented as the percent inhibition of specific binding in Table 6.

[5] = target: T5, human recombinant adrenergic α2B receptor (Homo sapiens, UniProt P18089); assay: Adrenergic α2B radioligand binding ([3H]Rauwolscine); design: Inhibition of ligand binding, Adren. alpha2B: concentration or dose not given beside the values; conditions: percent inhibition of specific binding
T5 construct: expressed in transfected cells; host or cells: CHO-K1 cells
T5 sequence (P18089 1-450): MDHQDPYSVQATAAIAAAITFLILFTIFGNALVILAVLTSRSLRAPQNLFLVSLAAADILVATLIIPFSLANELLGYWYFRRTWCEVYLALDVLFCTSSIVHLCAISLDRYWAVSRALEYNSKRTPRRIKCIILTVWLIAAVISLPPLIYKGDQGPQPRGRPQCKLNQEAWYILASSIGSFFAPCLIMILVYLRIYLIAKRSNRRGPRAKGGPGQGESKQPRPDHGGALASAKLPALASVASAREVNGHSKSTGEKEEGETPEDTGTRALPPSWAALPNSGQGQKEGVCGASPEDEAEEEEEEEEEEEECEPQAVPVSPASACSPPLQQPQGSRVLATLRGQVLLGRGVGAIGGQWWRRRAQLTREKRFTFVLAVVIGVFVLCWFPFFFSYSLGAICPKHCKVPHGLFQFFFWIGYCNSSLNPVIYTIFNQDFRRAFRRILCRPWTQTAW
How it was run: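 Incubation ran 60 minutes at 25 °C in modified Tris-HCl buffer (50 mM, pH 7.4, 12.5 mM MgCl2, 1 mM EDTA, 0.2% BSA) using CHO-K1-expressed human receptor.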

[6] = target: T6, human recombinant histamine H2 receptor (Homo sapiens, UniProt P25021); assay: Histamine H2 radioligand binding ([125I]Aminopotentidine); conditions: for inhibition at 0.1 µM: 0.1 μM compound; for inhibition at 0.3 µM: 0.3 μM compound
T6 construct: expressed in transfected cells; host or cells: CHO-K1 cells
How it was run: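 This radioligand binding assay measured displacement of [125I]Aminopotentidine from recombinant human histamine H2 receptors. Compounds were dissolved in 1% DMSO vehicle. Specific binding was calculated by subtracting non-specific binding, defined using 3 μM Tiotidine, and activity was reported as percentage inhibition of that specific binding.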

[7] = 0.1 nM [125I]Aminopotentidine, read-out: Histamine Binding H2, percent inhibition of specific binding
[8] = 1 μM compound, 0.1 nM [125I]Aminopotentidine, read-out: Histamine Binding H2, percent inhibition of specific binding
[9] = percent inhibition of specific binding, screened at 1 μM, read-out: Inhibition of ligand binding, Hist. H2

T2 sequence (P28223 whole entry): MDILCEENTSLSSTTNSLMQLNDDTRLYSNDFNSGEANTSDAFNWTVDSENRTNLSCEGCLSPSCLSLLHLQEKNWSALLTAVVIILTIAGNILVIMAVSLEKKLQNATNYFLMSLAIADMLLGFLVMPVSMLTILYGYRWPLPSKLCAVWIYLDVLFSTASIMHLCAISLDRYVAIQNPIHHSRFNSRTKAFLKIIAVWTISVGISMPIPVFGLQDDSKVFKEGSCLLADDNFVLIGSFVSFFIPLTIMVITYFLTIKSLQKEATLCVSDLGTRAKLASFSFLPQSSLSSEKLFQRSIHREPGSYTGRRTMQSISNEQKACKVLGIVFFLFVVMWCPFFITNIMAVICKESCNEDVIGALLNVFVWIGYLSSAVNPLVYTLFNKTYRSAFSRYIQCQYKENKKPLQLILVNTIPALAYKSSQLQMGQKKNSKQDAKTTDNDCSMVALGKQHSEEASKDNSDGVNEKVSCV
T1 sequence (P14416 whole entry): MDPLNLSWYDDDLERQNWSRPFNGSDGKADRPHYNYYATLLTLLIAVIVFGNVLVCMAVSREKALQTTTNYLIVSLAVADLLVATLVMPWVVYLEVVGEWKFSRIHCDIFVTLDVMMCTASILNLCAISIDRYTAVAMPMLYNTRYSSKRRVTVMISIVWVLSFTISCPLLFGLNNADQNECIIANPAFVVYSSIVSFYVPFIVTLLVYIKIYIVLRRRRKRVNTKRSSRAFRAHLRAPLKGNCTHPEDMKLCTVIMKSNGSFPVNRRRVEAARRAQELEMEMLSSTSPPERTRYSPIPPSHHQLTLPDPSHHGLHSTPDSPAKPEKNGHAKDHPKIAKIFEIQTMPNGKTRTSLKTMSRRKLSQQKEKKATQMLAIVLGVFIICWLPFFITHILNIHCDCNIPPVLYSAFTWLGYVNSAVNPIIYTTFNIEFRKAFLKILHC
T6 sequence (P25021 whole entry): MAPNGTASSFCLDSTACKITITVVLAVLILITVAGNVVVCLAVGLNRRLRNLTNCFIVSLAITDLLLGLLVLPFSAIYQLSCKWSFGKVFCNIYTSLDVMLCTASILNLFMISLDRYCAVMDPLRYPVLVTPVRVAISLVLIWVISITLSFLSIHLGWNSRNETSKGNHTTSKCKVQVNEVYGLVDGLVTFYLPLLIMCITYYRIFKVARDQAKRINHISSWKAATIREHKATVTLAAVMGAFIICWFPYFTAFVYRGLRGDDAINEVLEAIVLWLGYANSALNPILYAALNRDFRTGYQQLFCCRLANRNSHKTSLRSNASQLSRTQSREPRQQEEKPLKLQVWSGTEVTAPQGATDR

Compound | Inhibition of ligand binding, Dop. D2L [1] [%] | Inhibition of ligand binding, Ser. 5-HT2A [2] [%] | Inhibition of ligand binding, Ser. 5-HT2C [3] [%] | Inhibition of ligand binding, Adren. alpha1D [4] [%] | Inhibition of ligand binding, Adren. alpha2B [5] [%] | inhibition at 0.1 µM [6, 7] [%] | inhibition at 0.3 µM [6, 7] [%] | inhibition at 1 µM [6, 8] [%] | inhibition at 1 µM [6, 9] [%]
Cc1ccc2c(c1)c1c(n2CCc2ccccc2)CCN(C)C1 [Compound 20, 2,3,4,5-tetrahydro-2,8-dimethyl-5-phenethyl-1H-pyrido[4,3-b]indole] | 87 | 98 | 98 | 94 | 108 | 33 | 51 | 72 | 87
Cc1ccc2c(c1)c1c(n2CCc2ccc(Cl)cc2)CCN(C)C1 [Compound 32, 5-(4-chlorophenethyl)-2,3,4,5-tetrahydro-2,8-dimethyl-1H-pyrido[4,3-b]indole] | 82 | 96 | 100 | 94 | 110 |  | 99 | 101 | 101
CN1CCc2c(c3cc(Cl)ccc3n2CCc2ccccn2)C1 [Compound 30, 8-chloro-2,3,4,5-tetrahydro-2-methyl-5-(2-(pyridin-2-yl)ethyl)-1H-pyrido[4,3-b]indole] | 29 | 91 | 90 | 68 | 102 |  |  | 34 | 34
Cc1ccc(CCn2c3c(c4cc(C)ccc42)CN(C)CC3)cc1 [Compound 25, 2,3,4,5-tetrahydro-2,8-dimethyl-5-(4-methylphenethyl)-1H-pyrido[4,3-b]indole] | 94 | 93 | 99 |  | 108 | 54 | 75 | 96 | 96
CN1CCc2c(c3cc(Cl)ccc3n2CC(=O)N2CCCCC2)C1 [Compound 236, 2-(8-chloro-1,2,3,4-tetrahydro-2-methylpyrido[4,3-b]indol-5-yl)-1-(piperidin-1-yl)ethanone] | 1 |  | 54 | 10 | 9 |  |  | 17 | 17
CN1CCc2c(c3cc(Cl)ccc3n2CC(=O)N2CCNCC2)C1 [Compound 244] | 6 |  | 22 | 12 | 13 |  |  | 10 | 10
Cc1ccc(CCn2c3c(c4ccccc42)CN(C)CC3)cc1 [Compound 1, 2,3,4,5-tetrahydro-2-methyl-5-(4-methylphenethyl)-1H-pyrido[4,3-b]indole] | 62 | 95 | 95 | 76 |  | 33 | 57 | 82 | 82
Cc1ccc2c(c1)c1c(n2CCc2ccccc2F)CCN(C)C1 [Compound 34, 5-(2-fluorophenethyl)-2,3,4,5-tetrahydro-2,8-dimethyl-1H-pyrido[4,3-b]indole] | 88 | 99 | 96 | 76 |  |  |  | 89 | 89
CN1CCc2c(c3cc(Cl)ccc3n2CC(=O)N2CCCC2)C1 [Compound 243, 2-(8-chloro-1,2,3,4-tetrahydro-2-methylpyrido[4,3-b]indol-5-yl)-1-(pyrrolidin-1-yl)ethanone] | 8 |  | 33 | 8 | 6 |  |  | 17 | 17
